The values below come from patent publication US9643967B2, “Pyrrolo[3,2-c]pyridine derivatives as TLR inhibitors” (TAKEDA PHARMACEUTICAL COMPANY LIMITED, priority 2013, dated 2017).

This assay concerns the target T1, mTLR9 (Mus musculus, UniProt Q9EQU3).
T1 construct: Splenocytes isolated from male C57/BL6 mice; from tissue; host or cells: splenocytes from the spleen of male C57BL/6 mice
T1 sequence (Q9EQU3 26-1032): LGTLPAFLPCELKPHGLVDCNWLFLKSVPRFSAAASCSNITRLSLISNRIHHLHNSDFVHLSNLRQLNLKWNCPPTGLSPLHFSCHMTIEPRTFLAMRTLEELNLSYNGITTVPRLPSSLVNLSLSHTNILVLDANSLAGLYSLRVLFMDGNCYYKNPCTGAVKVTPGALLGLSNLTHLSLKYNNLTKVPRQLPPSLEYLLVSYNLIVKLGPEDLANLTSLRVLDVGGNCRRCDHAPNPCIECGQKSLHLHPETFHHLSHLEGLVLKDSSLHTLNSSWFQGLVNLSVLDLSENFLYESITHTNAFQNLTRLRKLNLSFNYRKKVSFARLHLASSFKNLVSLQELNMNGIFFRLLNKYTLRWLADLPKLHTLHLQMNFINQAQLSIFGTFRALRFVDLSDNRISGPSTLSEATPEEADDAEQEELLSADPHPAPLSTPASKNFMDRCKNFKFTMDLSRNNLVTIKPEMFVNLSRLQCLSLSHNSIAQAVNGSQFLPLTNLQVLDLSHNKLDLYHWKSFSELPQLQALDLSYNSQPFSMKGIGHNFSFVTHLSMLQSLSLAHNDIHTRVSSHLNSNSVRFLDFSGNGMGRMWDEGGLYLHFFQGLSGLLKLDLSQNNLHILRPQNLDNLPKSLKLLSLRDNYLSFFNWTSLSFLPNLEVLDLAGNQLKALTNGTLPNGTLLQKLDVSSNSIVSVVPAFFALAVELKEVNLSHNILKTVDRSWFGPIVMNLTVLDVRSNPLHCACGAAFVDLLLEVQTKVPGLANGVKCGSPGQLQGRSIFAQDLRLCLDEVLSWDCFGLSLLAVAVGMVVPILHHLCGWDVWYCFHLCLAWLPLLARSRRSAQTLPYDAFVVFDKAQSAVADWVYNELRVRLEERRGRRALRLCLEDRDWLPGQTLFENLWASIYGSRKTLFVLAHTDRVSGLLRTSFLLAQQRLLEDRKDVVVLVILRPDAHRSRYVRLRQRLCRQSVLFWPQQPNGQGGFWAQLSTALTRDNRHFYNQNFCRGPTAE
The assay is described as follows: mTLR9 antagonism (IL-6 and TNF-α release assay) in mouse splenocytes, CpG ODN-2006 stimulated. The settings on record: 1 μM, mouse splenocytes. The class given is cell-based. An excerpt:
mTLR9 and mTLR7 Antagonism (Cytokine Release Assay) in Mouse Splenocytes
TLR7 ligand R0006 (IDT, 5′-rU*rU*rG*rU*rU*rG*rU*rU*rG*rU*rU*rG*rU*rU*rG*rU*rU*rG*rU*rU-3′ (SEQ ID NO:1)), Liposomal transfection reagent—DOTAP (Roche, Cat. No. 11202375001), TLR9 ligand CpG ODN2006 (Sequence: T*C*G*T*C*G*T*T*T*T*G*T*C*G*T*T*T*T*G*T*C*G*T*T; *=phosphorothioate (SEQ ID NO:2)) DMSO (Sigma, D2650), RPMI Powder (Sigma, R6504), Fetal Bovine Serum (Gibco, 10270), Dulbecco's Phosphate Buffered Saline (Sigma, D1408), 96 well plate (Flat bottom, Costar 3599), ELISA kit for IL-6 (EBioscience, 88-7064-77 and TNFa (EBioscience, 88-7346-88), MACS Buffer (AutoMACS Rinsing Solution (Miltenyl Biotec, 130-091-222)+0.05% BSA), RBC lysis buffer (0.85% NH4Cl), 40 μm cell strainer (BD Falcon, 352340) Method: A. Isolation of Mouse Splenocytes
Mouse spleen was isolated from C57BL6 mouse and stored in 1× chilled PBS buffer until further processed. Spleen was transferred to a sterile petriplate and chopped in to 5-6 pieces in presence of MACS buffer (100 μl) with the help of fresh surgical blade and crushed with flat plunger of a sterile syringe. A uniform suspension was prepared by passing cells through a 40 μm cell strainer. Cells were centrifuged at 450×g for 5 minutes at 4° C., supernatant was discarded and pellet dislodged gently, resuspended in 2 ml of pre-warmed (37° C.) RBC lysis buffer at room temperature with continuous gentle mixing with 1 ml pipette. Lysis buffer was neutralized with 12 ml of chilled MACS buffer and cells were passed through 40 μm cell strainer. Cell suspension was collected in 15 ml MACS buffer and centrifuged at 450×g for 5 minutes at 4° C. Pellet was resuspended in 15 ml MACS buffer and centrifuged at 400×g for 5 minutes. Cells were resuspended in 10 ml of RPMI complete medium and viability was estimated by Trypan blue method.
mTLR9 Antagonism (IL-6 and TNF-α Release Assay):
500 μM stock of CpG ODN-2006 was prepared in sterile, endotoxin-free water. Dilutions of 10× concentrations of NCEs were prepared in incomplete RPMI media, maintaining a final DMSO concentration of 0.3%. NCEs were added in a concentration range of 30 μM to 1 nM in respective wells of assay plate, assay medium containing 0.3% DMSO were added to control wells. 0.2 million splenocytes were added to all the wells and incubated at 37° C. in 5% CO2 incubator for 30 minutes. 1 μg/ml of respective agonist was added to all the wells except those were assigned as negative controls and mixed thoroughly. Incomplete RPMI was added to negative control wells and incubated overnight at 37° C./5% CO2. The plate was centrifuged at 450×g for 5 minutes at room temperature and the supernatant was collected. ELISA was performed as per manufacturer's protocol. S/B Ratio, % Activity and % Inhibition was calculated using MS Excel. IC50 and inhibition curve was generated using Graph Pad Prism.

Setting [1] is: TNF-α release, read-out: mTLR9 inhibitory activity (% at 1 μM), TNF-α.
[2] abbreviates: IL-6 release, read-out: mTLR9 inhibitory activity (% at 1 μM), IL-6.

SMILES strings stand for the structures. Like-named read-outs stand apart in the source and are kept apart here.

As for `Cc1nc(-c2ccc(N3CCN(C(C)C)CC3)cc2)c2cc(CN3CCOCC3)[nH]c2c1C` [Example A36, 4-[[4-[4-(4-isopropylpiperazin-1-yl)phenyl]-6,7-dimethyl-1H-pyrrolo[3,2-c]pyridin-2-yl]methyl] morpholine], the inhibition at 1 µM under setting [1] stood at 100%.

In the case of `Cc1nc(-c2ccc(N3CCN(C)CC3)cc2)c2cc(CN3CCOCC3)[nH]c2c1C` [Example A37, 4-[[6,7-dimethyl-4-[4-(4-methylpiperazin-1-yl)phenyl]-1H-pyrrolo[3,2-c]pyridin-2-yl]methyl] morpholine], the inhibition at 1 µM under setting [1] is 100%.

Regarding `CCN1CCN(c2ccc(-c3nc(C)c(C)c4[nH]c(CN5CCOCC5)cc34)cc2)CC1` [Example A38, 4-[[4-[4-(4-ethylpiperazin-1-yl)phenyl]-6,7-dimethyl-1H-pyrrolo[3,2-c]pyridin-2-yl]methyl] morpholine], the inhibition at 1 µM is, setting by setting: under setting [2], 100%; under setting [1], 100%.

Consider `Cc1nc(-c2ccc(N3CCN(C(C)C)CC3)cc2)c2cc(CN3CCCCC3)[nH]c2c1C` [Example A39, 4-[4-(4-isopropylpiperazin-1-yl)phenyl]-6,7-dimethyl-2-(1-piperidylmethyl)-1H-pyrrolo[3,2-c]pyridine], for which the inhibition at 1 µM under setting [1] was 100%.

As for `Cc1nc(-c2ccc(N3CCN(C(C)C)CC3)cc2)c2cc(CN3CCCC3)[nH]c2c1C` [Example A40, 4-[4-(4-isopropylpiperazin-1-yl)phenyl]-6,7-dimethyl 2-(pyrrolidin-1-ylmethyl)-1H-pyrrolo[3,2-c)pyridine], the inhibition at 1 µM under setting [1] was 100%.

For the molecule `c1cc2[nH]c(CN3CCOCC3)cc2c(-c2ccc(N3CCNCC3)cc2)n1` [Example A42, 4-[[4-(4-(piperazin-1-yl)phenyl)-1H-pyrrolo[3,2-c]pyridin-2-yl]methyl] morpholine], the inhibition at 1 µM reads like this: under setting [2], 84%; under setting [1], 41%.

Take `c1cc2[nH]c(CN3CCOCC3)cc2c(-c2ccc(OC3CCNCC3)cc2)n1` [Example A49, 4-[[4-[4-(4-piperidyloxy)phenyl]-1H-pyrrolo[3,2-c]pyridin-2-yl]methyl]morpholine]: the inhibition at 1 µM was 65% under setting [2] and 15% under setting [1].

Consider `Cc1cc2[nH]c(CN3CCOCC3)cc2c(-c2ccc(C3CCN(C(C)C)CC3)cc2)n1` [Example A51, 4-[[4-[4-(1-isopropyl-4-piperidyl)phenyl]-6-methyl-1H-pyrrolo[3,2-c]pyridin-2-yl]methyl]morpholine], for which the inhibition at 1 µM runs as follows: under setting [2], 100%; under setting [1], 90%.

In the case of `CC(C)N1CC=C(c2ccc(-c3nccc4[nH]c(CN5CCOCC5)cc34)cn2)CC1` [Example A52, 4-[[4-[6-(1-isopropyl-3,6-dihydro-2H-pyridin-4-yl)-3-pyridyl]-1H-pyrrolo[3,2-c]pyridin-2-yl]methyl]morpholine], the inhibition at 1 µM runs as follows: under setting [2], 100%; under setting [1], 29%.

For `CC(C)N1CCN(c2ccc(-c3nccc4[nH]c(CN5CCOCC5)cc34)cn2)CC1` [Example A53, 4-[[4-[6-(4-isopropylpiperazin-1-yl)-3-pyridyl]-1H-pyrrolo[3,2-c]pyridin-2-yl]methyl]morpholine], the inhibition at 1 µM by setting is: under setting [2], 100%; under setting [1], 80%.

For `CC(C)N1CCC(n2cc(-c3nccc4[nH]c(CN5CCOCC5)cc34)cn2)CC1` [Example A54, 4-[[4-[1-(1-isopropyl-4-piperidyl)pyrazol-4-yl]-1H-pyrrolo[3,2-c]pyridin-2-yl]methyl]morpholine], the inhibition at 1 µM under setting [1] turned out to be 0%.

For `CC(C)N1CCN(Cc2ccc(-c3nccc4[nH]c(CN5CCOCC5)cc34)cc2)CC1` [Example A55, 4-[[4-[4-[(4-isopropylpiperazin-1-yl)methyl]phenyl]-1H-pyrrolo[3,2-c]pyridin-2-yl]methyl]morpholine], the inhibition at 1 µM was 96% under setting [2] and 59% under setting [1].

Consider `CC(C)N1CCC(Oc2ccc(-c3nccc4[nH]c(CN5CCOCC5)cc34)cc2)CC1` [Example A56, 4-[[4-[4-[(1-isopropyl-4-piperidyl)oxy]phenyl]-1H-pyrrolo[3,2-c]pyridin-2-yl]methyl]morpholine], for which, under setting [1], the inhibition at 1 µM is 71%.

Take `CC(C)N1CCN(c2cccc(-c3nccc4[nH]c(CN5CCOCC5)cc34)c2)CC1` [Example A57, 4-[[4-[3-(4-isopropylpiperazin-1-yl)phenyl]-1H-pyrrolo[3,2-c]pyridin-2-yl]methyl]morpholine]: the inhibition at 1 µM under setting [2] was 100% and the inhibition at 1 µM under setting [1] came out at 34%.

Regarding `CN1CCN(Cc2ccc(-c3nccc4[nH]c(CN5CCOCC5)cc34)cc2)CC1` [Example A60, 4-[[4-[4-[(4-methylpiperazin-1-yl)methyl]phenyl]-1H-pyrrolo[3,2-c]pyridin-2-yl]methyl]morpholine], the inhibition at 1 µM is 0% under setting [2] and 38% under setting [1].

With `CN1CCN(c2cccc(-c3nccc4[nH]c(CN5CCOCC5)cc34)c2)CC1` [Example A61, 4-[[4-[3-(4-methylpiperazin-1-yl)phenyl]-1H-pyrrolo[3,2-c]pyridin-2-yl]methyl]morpholine], the inhibition at 1 µM runs as follows: under setting [2], 100%; under setting [1], 45%.

As for `CN1CCC(Oc2ccc(-c3nccc4[nH]c(CN5CCOCC5)cc34)cc2)CC1` [Example A62, 4-[[4-[4-[(1-methyl-4-piperidyl)oxy]phenyl]-1H-pyrrolo[3,2-c]pyridin-2-yl]methyl]morpholine], under setting [1], the inhibition at 1 µM amounted to 79%.

Take `CN1CCC(n2cc(-c3nccc4[nH]c(CN5CCOCC5)cc34)cn2)CC1` [Example A63, 4-[[4-[1-(1-methyl-4-piperidyl)pyrazol-4-yl]-1H-pyrrolo[3,2-c]pyridin-2-yl]methyl]morpholine]: under setting [1], the inhibition at 1 µM was 0%.

`CC(C)N1CCC(c2ccc(-c3nccc4[nH]c(CN5CCOCC5)cc34)cn2)CC1` [Example A64, 4-[[4-[6-(1-isopropyl-4-piperidyl)-3-pyridyl]-1H-pyrrolo[3,2-c]pyridin-2-yl]methyl]morpholine]: the inhibition at 1 µM reads like this: under setting [2], 25%; under setting [1], 0%.

With `CC(C)N1CCC(c2ccc(-c3nccc4[nH]c(CN5CCOCC5)cc34)cc2)CC1` [Example A70, 4-[[4-[4-(1-isopropyl-4-piperidyl)phenyl]-1H-pyrrolo[3,2-c]pyridin-2-yl]methyl]morpholine], the inhibition at 1 µM runs as follows: under setting [2], 95%; under setting [1], 52%.
